The results in this text go back to PMC3094066 (Molecular Systems Biology, 2011).

Structures are written as SMILES.

The test addresses human ADRB2 (Homo sapiens, UniProt P07550). The test can be described thus: Calcium mobilization assay. The format is cell-based. The following applies: in words; for ADRB2 antagonist activity: Figure 4B. (In general: A change in cytosolic calcium serves as a functional read-out for many receptors and channels.)

Chain of human ADRB2 (P07550 whole entry): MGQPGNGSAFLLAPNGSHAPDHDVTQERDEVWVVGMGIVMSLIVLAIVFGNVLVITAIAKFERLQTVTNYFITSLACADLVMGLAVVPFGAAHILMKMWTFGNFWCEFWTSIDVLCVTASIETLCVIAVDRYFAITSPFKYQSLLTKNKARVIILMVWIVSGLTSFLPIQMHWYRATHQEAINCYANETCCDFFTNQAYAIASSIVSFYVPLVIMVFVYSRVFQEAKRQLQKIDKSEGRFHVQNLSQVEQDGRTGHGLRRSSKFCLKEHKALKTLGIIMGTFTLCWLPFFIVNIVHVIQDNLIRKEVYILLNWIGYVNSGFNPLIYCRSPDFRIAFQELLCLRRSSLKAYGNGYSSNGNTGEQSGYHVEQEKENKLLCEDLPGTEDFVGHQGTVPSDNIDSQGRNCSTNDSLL

For the compound `Cc1ccc(-n2c(C)ccc2C)c2c1CC(C)(C)O2` [Compound 5, 2,5-Dimethyl-1-(2,2,4-trimethyl-2,3-dihydro-1-benzofuran-7-yl)-1H-pyrrole], where the note is “Figure 4A”, the ADRB2 agonist activity result was “weak ADRB2 agonist activity”.
Consider `Cc1cc2c(OCC(O)CNC(C)(C)C)cccc2[nH]1` (stereo not drawn) [Compound 8, 1-(tert-butylamino)-3-[(2-methyl-1H-indol-4-yl)oxy]-2-propanol, reference compound], for which the ADRB2 antagonist activity entry is “strong ADRB2 antagonist activity”.
Take `COCCCNCC(O)COc1cccc2[nH]c(C)cc12` (stereo not drawn) [Compound 33, 1-[(3-Methoxypropyl)amino]-3-[(2-methyl-1H-indol-4-yl)oxy]-2-propanol]: the ADRB2 antagonist activity entry is on record as “strong ADRB2 antagonist activity”.
